# Experimental data from patent US11357782B2, “Treprostinil administration by inhalation” (priority 2006, dated 2022).
# “Also recorded” adds a separate entry of the source.
# Key:
# [1] = Aerosol quality by laser diffractometry (Respimat SMI); type: physicochemical; conditions: treprostinil-aerosol from Respimat SMI
# Source text: Placebo and treprostinil was applied with the Respimat® SMI. […] Eur. Respir.
# [2] = system: patients with severe pulmonary hypertension; assay: Study ii) placebo controlled dose escalation study of inhaled treprostinil, hemodynamics and tolerability; conditions: for maximal decrease of PVR to: 6 min inhalation
# Protocol: Study ii) was a randomized, open-label, single blind, placebo controlled study. […] A total number of 31 patients inhaled either placebo or treprostinil; each patient received one inhalation. […] Inhalation time was 6 minutes in all groups.
# [3] = system: patients with moderate to severe precapillary pulmonary hypertension; assay: Acute vasodilator challenge during right heart catheter investigation: inhaled treprostinil applied by soft mist inhaler (Example 1); conditions: for CO (max) / HR (max) / SvO2 (max): highest value; for CO (max) / HR (max) / SvO2 (max) / PAP (min) / PVR (min) / SAP (min) / SVR (min) / SaO2 (min): mean ± SEM; for PAP (min): lowest value during 120 min observation; for PVR (min) / SAP (min) / SVR (min) / SaO2 (min): lowest value; for pulmonary vascular resistance (PVR) reduced to: Respimat SMI, mean±95% confidence interval
# Protocol: A study was conducted of acute vasodilator challenge during right heart catheter investigation to determine the safety, tolerability and pulmonary vasodilatory potency of inhaled treprostinil applied in seconds by a soft mist inhaler (SMI-TRE).
# Inhaled nitric oxide (20 ppm; n=45) and inhaled treprostinil sodium (TRE; n=41) or placebo (n=4) were applied once during right heart catheter investigation. TRE was delivered in 2 breaths (1000 μg/ml aerosol concentration; 30 μg dose; n=12), 3 breaths (1000 μg/ml; 45 μg; n=9) or 2 breaths (2000m/m1; 60 μg; n=20) from a Respimat® SMI. Pulmonary hemodynamics and blood gases were measured at defined time points, observation time following TRE application was 120 minutes.
# • A total number of 45 patients with moderate to severe precapillary pulmonary hypertension were enrolled. […] Disease etiologies were idiopathic PAH (iPAH) (n=13), PAH other (n=11), chronic thromboembolic pulmonary hypertension (CTEPH) (n=17) and pulmonary fibrosis (n=4).
# Baseline values were determined 20-30 minutes after placement of the catheter. Heart rate, pulmonary and systemic blood pressure and cardiac output were measured and blood gases were taken during each pharmacological intervention at defined time points. Pharmacological interventions included the inhalation of 20 ppm nitric oxide (NO) after evaluation of baseline parameters (n=45) and the consecutive inhalation of placebo (n=4), 30 μg SMI-TRE (n=12), 45 μg SMI-TRE (n=9) or 60 μg (n=20) SMI-TRE. Placebo and treprostinil was applied with the Respimat® SMI. For filling of this device with treprostinil sodium, the placebo solution was withdrawn from the device with a syringe and treprostinil solution was injected into the device under sterile conditions. Aerosol quality was controlled before and after refilling of the SMI devices by laser diffractometry, see e.g. Gessler T., Schmehl T., Hoeper M.M., Rose F., Ghofrani H.A., Olschewski H. et al. Ultrasonic versus jet nebulization of iloprost in severe pulmonary hypertension. Eur. Respir. J. 2001; 17:14-19 incorporated herein in its entirety. […] The aerosol volume delivered by one cycle from the SMI was 15 μl. The solution used for aerosol generation was prepared from treprostinil sodium salt using a standard protocol. The SMI was either filled with a concentration of 1000 μg/ml treprostinil sodium (one aerosol puff=15 μg TRE) or with 2000 μg/ml (one puff=30 μg TRE). The different doses were applied as 2 puffs 1000 μg/ml (30 μg), 3 puffs 1000m/m1 (45 μg) and 2 puffs 2000 μg/ml (60 μg). The placebo was inhaled as 2 puffs from a placebo-SMI. Hemodynamics and gas-exchange parameters were recorded for 120 minutes after TRE inhalation.
# [4] = Treprostinil plasma concentrations after single inhalation (study ii), LC-MS/MS; conditions: for Cmax: human, plasma, inhaled
# Protocol: Treprostinil plasma concentrations were assessed in study ii) at 10, 15, 30, 60 and 120 minutes after inhalation. Treprostinil quantification was done by Alta Analytical Laboratory (El Dorado Hills, Calif., USA) with a validated liquid chromatography atmospheric-pressure ionization tandem mass spectrometry as previously described Wade M., et al. J. Clin. Pharmacol. 2004; 44:503-9. Mixed venous blood was drawn at the depicted time points (FIG. 11) after inhalation, centrifuged and the plasma frozen at −80° C. until temperature controlled shipping on dry ice.
structure (smiles),measurement,setting,value
CCCCC[C@H](O)CC[C@@H]1[C@H]2Cc3cccc(OCC(=O)[O-])c3C[C@H]2C[C@H]1O.[Na+] [TRE],aerosol particles mass median aerodynamic diameter,[1],4 to 5 µm
same,cardiac output increased to a maximum of,[2]; 30 μg,106.8±3.2%
same,side effects,"[2]; 30 μg TRE, n=1 each",flushing; also recorded: mild transient bronchoconstriction
same,duration of hemodynamic changes,"[2]; 30 μg dose group, 3 hour observation period",had just returned to baseline within this period
same,maximal decrease of PVR to,"[2]; 30 μg, n=8",76.5±4.7 % of baseline values
same,cardiac output increased to a maximum of,[2]; 60 μg,122.9±4.3%
same,side effects,"[2]; 60 μg TRE, n=3",mild transient cough
same,duration of pulmonary vasodilation,"[2]; 60 μg and 90 μg (and 120 μg) TRE doses, surpassing observation period",> 3 h
same,maximal decrease of PVR to,"[2]; 60 μg, n=6",73.7±5.8 % of baseline values
same,cardiac output increased to a maximum of,[2]; 90 μg,114.3±4.8%
same,maximal decrease of PVR to,"[2]; 90 μg, n=6",73.3±4.3 % of baseline values
same,cardiac output increased to a maximum of,[2]; 120 μg TRE,111.3±3.9%
same,arterial oxygen saturation,"[2]; 120 μg TRE, all 3 patients",significantly decreased
same,side effects,"[2]; 120 μg TRE, n=1 each",moderate bronchoconstriction; also recorded: severe headache
same,maximal decrease of PVR to,"[2]; 120 μg, n=3",65.4±4.1 % of baseline values
same,gas exchange,[2]; doses up to 90 μg TRE,not affected
same,effects on systemic arterial pressure,[2]; even at the highest doses,only minor effects
same,taste of the aerosol,[2]; metacresol-containing TRE solution,bad taste of the TRE aerosol was reported by most patients
same,tolerated inhaled dose,[2]; single inhalation,up to 90 μg
same,120 minute area under the curve for PVR,[3]; 30 μg TRE,−870±940 min %
same,duration of effect on pulmonary vascular resistance,"[3]; 30 μg TRE, compared with 45 and 60 μg",somewhat shorter effect
same,CO (max),"[3]; 30 μg TRE, n=12",108.8 ± 3.8% of baseline values
same,HR (max),"[3]; 30 μg TRE, n=12",106.1 ± 2.9% of baseline values
same,SvO2 (max),"[3]; 30 μg TRE, n=12",102.4 ± 1.3% of baseline values
same,PAP (min),"[3]; 30 μg TRE, n=12",83.4 ± 3.2% of baseline values
same,PVR (min),"[3]; 30 μg TRE, n=12",84.4 ± 4.4% of baseline values
same,SAP (min),"[3]; 30 μg TRE, n=12",97.3 ± 1.9% of baseline values
same,SVR (min),"[3]; 30 μg TRE, n=12",97.7 ± 4.2% of baseline values
same,SaO2 (min),"[3]; 30 μg TRE, n=12",101 ± 0.3% of baseline values
same,pulmonary vascular resistance (PVR) reduced to,"[3]; 30 μg, 2 breaths 1000 μg/ml",84.4±8.7 % of baseline values
same,120 minute area under the curve for PVR,[3]; 45 μg TRE,−2450±2070 min %
same,CO (max),"[3]; 45 μg TRE, n=9",108.6 ± 5.6% of baseline values
same,HR (max),"[3]; 45 μg TRE, n=9",99.1 ± 2.4% of baseline values
same,SvO2 (max),"[3]; 45 μg TRE, n=9",104.5 ± 4.4% of baseline values
same,PAP (min),"[3]; 45 μg TRE, n=9",77.6 ± 6.8% of baseline values
same,PVR (min),"[3]; 45 μg TRE, n=9",71.4 ± 8.9% of baseline values
same,SAP (min),"[3]; 45 μg TRE, n=9",96.1 ± 1.5% of baseline values
same,SVR (min),"[3]; 45 μg TRE, n=9",92 ± 3.9% of baseline values
same,SaO2 (min),"[3]; 45 μg TRE, n=9",94.4 ± 1.8% of baseline values
same,pulmonary vascular resistance (PVR) reduced to,"[3]; 45 μg, 3 breaths 1000 μg/ml",71.4±17.5 % of baseline values
same,120 minute area under the curve for PVR,[3]; 60 μg TRE,−2000±900 min %
same,CO (max),"[3]; 60 μg TRE, n=20",103.8 ± 2.0% of baseline values
same,HR (max),"[3]; 60 μg TRE, n=20",101.1 ± 0.9% of baseline values
same,SvO2 (max),"[3]; 60 μg TRE, n=20",102 ± 1.0% of baseline values
same,PAP (min),"[3]; 60 μg TRE, n=20",79.5 ± 2.4% of baseline values
same,PVR (min),"[3]; 60 μg TRE, n=20",77.5 ± 3.7% of baseline values
same,SAP (min),"[3]; 60 μg TRE, n=20",93.6 ± 2.9% of baseline values
same,SVR (min),"[3]; 60 μg TRE, n=20",91.3 ± 2.1% of baseline values
same,SaO2 (min),"[3]; 60 μg TRE, n=20",95.8 ± 0.9% of baseline values
same,pulmonary vascular resistance (PVR) reduced to,"[3]; 60 μg, 2 breaths",77.5±7.2 % of baseline values
same,effect on systemic vascular resistance and pressure,[3]; 30-60 μg from Respimat SMI,very small and not clinically significant
same,systemic side effects,[3]; 30-60 μg from Respimat SMI,No systemic side effects
same,tolerability / side effects,"[3]; 30-60 μg from Respimat SMI, listed as SMI-TRE",No significant side effects; also recorded: well tolerated; also recorded: only mild and transient cough for a maximum of one minute
same,duration of PVR reduction / pulmonary vasodilation,"[3]; 45 and 60 μg, single inhalation of 2-3 breaths, outlasted observation time",> 120 min
same,cardiac output,[3]; 120 min observation period,significantly increased
same,gas exchange,[3]; 120 min observation period,not influenced
same,heart rate,[3]; 120 min observation period,rather unchanged
same,time of peak plasma concentrations after inhalation,"[4]; 30-120 μg, 6 min inhalation",10 to 15 min
same,Cmax,[4]; 30 ug,0.65 ± 0.28 ng/mL
same,Cmax,[4]; 60 ug,1.59 ± 0.17 ng/mL
same,Cmax,[4]; 90 ug,1.74 ng/mL
same,Cmax,[4]; 120 ug,3.51 ± 1.04 ng/mL
